Test results as given in PubChem BioAssay (NCI).
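A five-concentration, 48-hour dose response in 96-well plates underlies each endpoint, interpolated linearly between surrounding concentrations. Abbreviation: GI50, concentration required for 50% inhibition of growth. At the TGI there is no net growth.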

What was measured:
Experiment in all cases: NCI-60 cell line screen, 48 h
786-0 renal = test system: 786-0 renal
A498 renal = test system: A498 renal
A549 NSCLC = test system: A549 NSCLC
ACHN renal = test system: ACHN renal
BT-549 breast = test system: BT-549 breast
CAKI-1 renal = test system: CAKI-1 renal
CCRF-CEM leukemia = test system: CCRF-CEM leukemia
COLO 205 colon = test system: COLO 205 colon
DU-145 prostate = test system: DU-145 prostate
EKVX NSCLC = test system: EKVX NSCLC
HCT-15 colon = test system: HCT-15 colon
HOP-62 NSCLC = test system: HOP-62 NSCLC
HOP-92 NSCLC = test system: HOP-92 NSCLC
HS 578T breast = test system: HS 578T breast
IGROV1 ovarian = test system: IGROV1 ovarian
K-562 leukemia = test system: K-562 leukemia
KM12 colon = test system: KM12 colon
LOX IMVI melanoma = test system: LOX IMVI melanoma
M14 melanoma = test system: M14 melanoma
MALME-3M melanoma = test system: MALME-3M melanoma
MCF7 breast = test system: MCF7 breast
MDA-MB-231 breast = test system: MDA-MB-231 breast
MDA-MB-435 = test system: MDA-MB-435
MOLT-4 leukemia = test system: MOLT-4 leukemia
NCI-H226 lung = test system: NCI-H226 lung
NCI-H23 lung = test system: NCI-H23 lung
NCI-H460 lung = test system: NCI-H460 lung
NCI-H522 lung = test system: NCI-H522 lung
NCI/ADR-RES ovarian = test system: NCI/ADR-RES ovarian
OVCAR-3 ovarian = test system: OVCAR-3 ovarian
OVCAR-4 ovarian = test system: OVCAR-4 ovarian
OVCAR-5 ovarian = test system: OVCAR-5 ovarian
OVCAR-8 ovarian = test system: OVCAR-8 ovarian
PC-3 prostate = test system: PC-3 prostate
RPMI-8226 leukemia = test system: RPMI-8226 leukemia
RXF 393 renal = test system: RXF 393 renal
SF-268 CNS = test system: SF-268 CNS
SF-295 CNS = test system: SF-295 CNS
SF-539 CNS = test system: SF-539 CNS
SK-MEL-2 melanoma = test system: SK-MEL-2 melanoma
SK-MEL-28 melanoma = test system: SK-MEL-28 melanoma
SK-MEL-5 melanoma = test system: SK-MEL-5 melanoma
SK-OV-3 ovarian = test system: SK-OV-3 ovarian
SN12C renal = test system: SN12C renal
SNB-19 CNS = test system: SNB-19 CNS
SNB-75 CNS = test system: SNB-75 CNS
SR leukemia = test system: SR leukemia
SW-620 colon = test system: SW-620 colon
T-47D breast = test system: T-47D breast
TK-10 renal = test system: TK-10 renal
U251 CNS = test system: U251 CNS
UACC-257 melanoma = test system: UACC-257 melanoma
UACC-62 melanoma = test system: UACC-62 melanoma
UO-31 renal = test system: UO-31 renal
HCC-2998 colon = test system: HCC-2998 colon
HCT-116 colon = test system: HCT-116 colon
HL-60(TB) leukemia = test system: HL-60(TB) leukemia
HT29 colon = test system: HT29 colon

Compound: O=C1C=CC(O)C2C1CC13SSC4(CC5C(=O)C=CC(O)C5N4C1=O)C(=O)N23 (stereo not drawn)
- TGI (786-0 renal): 490 nM
- TGI (A498 renal): 6.26 µM
- TGI (A549 NSCLC): 10.8 µM
- TGI (ACHN renal): 835 nM
- TGI (BT-549 breast): 3.65 µM
- TGI (CAKI-1 renal): 957 nM
- TGI (CCRF-CEM leukemia): 1950 nM
- TGI (COLO 205 colon): 1040 nM
- TGI (DU-145 prostate): 1070 nM
- TGI (EKVX NSCLC): 2330 nM
- TGI (HCT-15 colon): 794 nM
- TGI (HOP-62 NSCLC): 1150 nM
- TGI (HOP-92 NSCLC): 573 nM
- TGI (HS 578T breast): 2260 nM
- TGI (IGROV1 ovarian): 3.43 µM
- TGI (K-562 leukemia): > 100 µM
- TGI (KM12 colon): 342 nM
- TGI (LOX IMVI melanoma): 193 nM
- TGI (M14 melanoma): 752 nM
- TGI (MALME-3M melanoma): 1220 nM
- TGI (MCF7 breast): > 100 µM
- TGI (MDA-MB-231 breast): 947 nM
- TGI (MDA-MB-435): 434 nM
- TGI (MOLT-4 leukemia): > 100 µM
- TGI (NCI-H226 lung): 1190 nM
- TGI (NCI-H23 lung): 393 nM
- TGI (NCI-H460 lung): > 34.2 µM
- TGI (NCI-H522 lung): 544 nM
- TGI (NCI/ADR-RES ovarian): 93 nM
- TGI (OVCAR-3 ovarian): 530 nM
- TGI (OVCAR-4 ovarian): 4.89 µM
- TGI (OVCAR-5 ovarian): 571 nM
- TGI (OVCAR-8 ovarian): 271 nM
- TGI (PC-3 prostate): 1130 nM
- TGI (RPMI-8226 leukemia): 93 nM
- TGI (RXF 393 renal): 1.48 µM
- TGI (SF-268 CNS): 5.85 µM
- TGI (SF-295 CNS): 2940 nM
- TGI (SF-539 CNS): 505 nM
- TGI (SK-MEL-2 melanoma): 3.56 µM
- TGI (SK-MEL-28 melanoma): 1910 nM
- TGI (SK-MEL-5 melanoma): 1060 nM
- TGI (SK-OV-3 ovarian): 14.1 µM
- TGI (SN12C renal): 743 nM
- TGI (SNB-19 CNS): 5.19 µM
- TGI (SNB-75 CNS): 5.14 µM
- TGI (SR leukemia): 72.7 nM
- TGI (SW-620 colon): 136 nM
- TGI (T-47D breast): 2530 nM
- TGI (TK-10 renal): 1810 nM
- TGI (U251 CNS): 1280 nM
- TGI (UACC-257 melanoma): 768 nM
- TGI (UACC-62 melanoma): 622 nM
- TGI (UO-31 renal): 1270 nM

Compound: CC(C)CCN[C@@H]1CCc2cc(O)c(N3CC(=O)NS3(=O)=O)c(F)c2C1
- GI50 (786-0 renal): > 100 µM
- TGI (786-0 renal): > 100000 nM
- GI50 (A498 renal): > 100 µM
- TGI (A498 renal): > 100 µM
- GI50 (A549 NSCLC): > 100 µM
- TGI (A549 NSCLC): > 100 µM
- GI50 (ACHN renal): > 100 µM
- TGI (ACHN renal): > 100000 nM
- GI50 (BT-549 breast): 5.44 µM
- TGI (BT-549 breast): > 100 µM
- GI50 (CAKI-1 renal): 3.41 µM
- TGI (CAKI-1 renal): > 100000 nM
- GI50 (CCRF-CEM leukemia): > 100 µM
- TGI (CCRF-CEM leukemia): > 100000 nM
- GI50 (COLO 205 colon): > 100 µM
- TGI (COLO 205 colon): > 100000 nM
- GI50 (DU-145 prostate): > 100 µM
- TGI (DU-145 prostate): > 100000 nM
- GI50 (EKVX NSCLC): > 100 µM
- TGI (EKVX NSCLC): > 100000 nM
- GI50 (HCC-2998 colon): > 100 µM
- TGI (HCC-2998 colon): > 100 µM
- GI50 (HCT-116 colon): > 100 µM
- TGI (HCT-116 colon): > 100 µM
- GI50 (HCT-15 colon): > 100 µM
- TGI (HCT-15 colon): > 100000 nM
- GI50 (HL-60(TB) leukemia): > 100 µM
- TGI (HL-60(TB) leukemia): > 100 µM
- GI50 (HOP-62 NSCLC): > 100 µM
- TGI (HOP-62 NSCLC): > 100000 nM
- GI50 (HOP-92 NSCLC): 16.1 µM
- TGI (HOP-92 NSCLC): > 100000 nM
- GI50 (HS 578T breast): > 100 µM
- TGI (HS 578T breast): > 100000 nM
- GI50 (HT29 colon): > 100 µM
- TGI (HT29 colon): > 100 µM
- GI50 (IGROV1 ovarian): > 100 µM
- TGI (IGROV1 ovarian): > 100 µM
- GI50 (K-562 leukemia): > 100 µM
- TGI (K-562 leukemia): > 100 µM
- GI50 (KM12 colon): > 100 µM
- TGI (KM12 colon): > 100000 nM
- GI50 (LOX IMVI melanoma): 52.7 µM
- TGI (LOX IMVI melanoma): > 100000 nM
- GI50 (M14 melanoma): > 100 µM
- TGI (M14 melanoma): > 100000 nM
- GI50 (MALME-3M melanoma): > 100 µM
- TGI (MALME-3M melanoma): > 100000 nM
- GI50 (MCF7 breast): > 100 µM
- TGI (MCF7 breast): > 100 µM
- GI50 (MDA-MB-231 breast): > 100 µM
- TGI (MDA-MB-231 breast): > 100000 nM
- GI50 (MDA-MB-435): > 100 µM
- TGI (MDA-MB-435): > 100000 nM
- GI50 (MOLT-4 leukemia): > 100 µM
- TGI (MOLT-4 leukemia): > 100 µM
- GI50 (NCI-H226 lung): > 100 µM
- TGI (NCI-H226 lung): > 100000 nM
- GI50 (NCI-H23 lung): > 100 µM
- TGI (NCI-H23 lung): > 100000 nM
- GI50 (NCI-H460 lung): > 100 µM
- TGI (NCI-H460 lung): > 100 µM
- GI50 (NCI-H522 lung): > 100 µM
- TGI (NCI-H522 lung): > 100000 nM
- GI50 (NCI/ADR-RES ovarian): > 100 µM
- TGI (NCI/ADR-RES ovarian): > 100000 nM
- GI50 (OVCAR-3 ovarian): > 100 µM
- TGI (OVCAR-3 ovarian): > 100000 nM
- GI50 (OVCAR-4 ovarian): > 100 µM
- TGI (OVCAR-4 ovarian): > 100 µM
- GI50 (OVCAR-5 ovarian): > 100 µM
- TGI (OVCAR-5 ovarian): > 100000 nM
- GI50 (OVCAR-8 ovarian): > 100 µM
- TGI (OVCAR-8 ovarian): > 100000 nM
- GI50 (PC-3 prostate): > 100 µM
- TGI (PC-3 prostate): > 100000 nM
- GI50 (RPMI-8226 leukemia): > 100 µM
- TGI (RPMI-8226 leukemia): > 100000 nM
- GI50 (RXF 393 renal): 812 nM
- TGI (RXF 393 renal): 8.01 µM
- GI50 (SF-268 CNS): > 100 µM
- TGI (SF-268 CNS): > 100 µM
- GI50 (SF-295 CNS): > 100 µM
- TGI (SF-295 CNS): > 100000 nM
- GI50 (SF-539 CNS): 20.3 µM
- TGI (SF-539 CNS): > 100000 nM
- GI50 (SK-MEL-2 melanoma): > 100 µM
- TGI (SK-MEL-2 melanoma): > 100 µM
- GI50 (SK-MEL-28 melanoma): > 100 µM
- TGI (SK-MEL-28 melanoma): > 100000 nM
- GI50 (SK-MEL-5 melanoma): > 100 µM
- TGI (SK-MEL-5 melanoma): > 100000 nM
- GI50 (SK-OV-3 ovarian): > 100 µM
- TGI (SK-OV-3 ovarian): > 100 µM
- GI50 (SN12C renal): > 100 µM
- TGI (SN12C renal): > 100000 nM
- GI50 (SNB-19 CNS): > 100 µM
- TGI (SNB-19 CNS): > 100 µM
- GI50 (SNB-75 CNS): 1170 nM
- TGI (SNB-75 CNS): > 100 µM
- GI50 (SR leukemia): 1780 nM
- TGI (SR leukemia): > 100000 nM
- GI50 (SW-620 colon): > 100 µM
- TGI (SW-620 colon): > 100000 nM
- GI50 (T-47D breast): > 100 µM
- TGI (T-47D breast): > 100000 nM
- GI50 (TK-10 renal): > 100 µM
- TGI (TK-10 renal): > 100000 nM
- GI50 (U251 CNS): > 100 µM
- TGI (U251 CNS): > 100000 nM
- GI50 (UACC-257 melanoma): > 100 µM
- TGI (UACC-257 melanoma): > 100000 nM
- GI50 (UO-31 renal): 16.8 µM
- TGI (UO-31 renal): > 100000 nM
